Laboratory results reported in patent US20110183336A1, “Method to Predict Responsiveness of Breast Cancer to Polyamine-Type Chemotherapy” (THE REGENTS OF THE UNIVERSITY OF CALIFORNIA, priority 2007, published 2011).

Tests used:
Format in all cases: cell-based
[1] = system: human brain cancer cell line U251MG-NCI; assay: Colony formation (plating efficiency) standard protocol
Experimental: (§1) Cell lines and media: Human breast cancer cell line MCF7 was grown in Richter's Improved Modified Eagle's Medium supplemented with 10% fetal bovine serum (FBS) and 2.2 g/L sodium bicarbonate. Human brain cancer cell line U251MG-NCI was grown in Dulbecco's Modified Eagle's Medium supplemented with 10% FBS. Human lung cancer cell line A549 was grown in Ham's F-12K medium (Fisher Scientific, Itasca, Ill.), supplemented with 10% FBS and 2 mM L-glutamine. Human colon cancer cell line HT29 was cultured in McCoy's 5A medium (Gibco, BRL, Gaithersburg, Md.), supplemented with 10% FBS. Human prostate cancer cell line PC3 was grown in Dulbecco's Modified Eagles Medium supplemented with 5% FBS. The A549 and MCF7 cell lines were cultured in 100 units/mL penicillin and 100 μg/mL streptomycin. HT29 and U251MG cell lines were grown in 50 μg/mL gentamycin. PC3 cell lines were maintained in 1% antibiotic-antimycotic solution (Sigma, St. Louis, Mo.). The cell cultures were maintained at 37° C. in 5% CO2/95% humidified air. All cell cultures are available from the American Type Culture Collection, Rockville, Md.
(§2) A standardized protocol was used to evaluate these test cultures:
(§3) Day 1: Ten standard culture flasks for each drug to be tested were plated with 5×10^5 cells of a given type in 5 mL of media and allowed to incubate for 16-24 hours at 37° C.
(§4) Day 2: Fresh stocks of the compounds to be evaluated are prepared. For each drug, two of the ten culture flasks prepared on Day 1 are used as controls. The control flasks are treated with solvent only. Four flasks for each compound are then treated with serially-diluted concentrations of the compound. The remaining flasks are left untouched. The cells are incubated for 4 hours at 37° C.
(§5) After 4 hours the control flasks are counted (2 counts for each flask) and the cells per mL calculated based on the average of the control counts. The cells are then re-plated into six 60 mm dishes for each flask from dilutions based on the cells/mL of the control. (In the various test runs, cell concentrations ranged from approximately 50 to approximately 800 cells per mL.)
(§6) Day 15-20: The cells are monitored for colony formation. When visible, the cells are stained with 0.5% crystal violet (in 95% EtOH) and counted. The plating efficiency for each dish is then calculated. The plating efficiencies of the six dishes for each flask are averaged and the standard deviation is calculated. The fraction of cell survival at each concentration is determined based on the controls.

U251MG NCl = assay: MTT assay, percent cell survival; conditions: Homo sapiens, U-251, 144 h, six days after drug treatment, read-out: ID50(μM) U251MG NCl
Experimental: as §1
(§7) Here, a conventional MTT assay was used to evaluate percent cell survival. Exponentially growing monolayer cells were plated in 96-well plates at a density of 500 cells per well and allowed to grow for 24 hours. Serial dilutions of the drugs were added to the wells. Six days after drug treatment, 25 μl of MTT solution (5 mg/ml) was added to each well and incubated for 4 hours at 37° C. Then 100 μl of lysis buffer (20% sodium dodecyl sulfate, 50% DMF, and 0.8% acetic acid, pH 4.7) was added to each well and incubated for an additional 22 hours. A microplate reader (“EMAX”-brand, Molecular Devices, Sunnyvale, Calif.) set at 570 nm was used to determine the optical density of the cultures. Results are expressed as a ratio of the optical density in drug-treated wells to the optical density in wells treated with vehicle only.
(§8) The ID50 is the drug concentration that killed 50% of the cultured cells.

MCF7 = assay: MTT assay, percent cell survival; conditions: Homo sapiens, MCF7, 144 h, six days after drug treatment, read-out: ID50(μM) MCF7
Experimental: as §1, §7, §8

HT-29 = assay: MTT assay, percent cell survival; conditions: Homo sapiens, HT-29, 144 h, HT-29, MTT, six days after drug treatment; read-out: ID50(μM) HT-29
Experimental: as §1, §7, §8

PC-3 = assay: MTT assay, percent cell survival; conditions: Homo sapiens, PC-3, 144 h, PC-3, MTT, six days after drug treatment; read-out: ID50(μM) PC-3
Experimental: as §1, §7, §8

[2] = system: Human breast cancer cell line MCF7; assay: Colony formation (plating efficiency) standard protocol; conditions: MCF7, MCF7, 4 hours exposure, colony formation day 15-20, read-out: ED50 (the source's name)
Experimental: as §1, §2, §3, §4, §5, §6

A549 = assay: MTT assay, percent cell survival; conditions: Homo sapiens, A549, 144 h, six days after drug treatment, read-out: ID50(μM) A549
Experimental: Human brain cancer cell line U251MG-NCI was grown in Dulbecco's Modified Eagle's Medium supplemented with 10% FBS. […] Human prostate cancer cell line PC3 was grown in Dulbecco's Modified Eagles Medium supplemented with 5% FBS. […] The cell cultures were maintained at 37° C. in 5% CO2/95% humidified air.
as §7, §8

Q: How did the “inhibition of cell growth” value ([1]; 10 μM dose) turn out when `CCNCCCNC1CC1NCCCNCC` (stereo not drawn) [SL-11027] was run?
A: The value was “marked inhibition of cell growth”.

Q: For `CCNCCCNC1CCC1NCCCNCC` (stereo not drawn) [SL-11034], which “inhibition of cell growth” value ([1]; 40 μM dose) is on record?
A: The value was “marked inhibition of cell growth”.

Q: With `CCNCCCNCC1CC1CNCCCNCC` (stereo not drawn) [SL-11037] as the molecule, how does the IC50 (U251MG NCl) read?
A: The IC50 was 0.1 µM.

Q: And the IC50 (MCF7)?
A: The IC50 was over 31.2 µM.

Q: And the IC50 (HT-29)?
A: The IC50 was 1.6 µM.

Q: What about the IC50 (PC-3) of the same molecule?
A: Its IC50 is 7.4 µM.

Q: How did the EC50 [2] turn out when `CCNCCCNCC1CC1CNCCCNCC` (stereo not drawn) [SL-11038] was run?
A: Its EC50 is 1340 nM.

Q: Which EC50 [2] does the source give for `CCNCCCNCC1CCC1CNCCCNCC` (stereo not drawn) [SL-11043] here?
A: Its EC50 is 1640 nM.

Q: And the IC50 (U251MG NCl)?
A: The IC50 was 0.1 µM.

Q: And the IC50 (MCF7)?
A: The IC50 was 25.5 µM.

Q: And the IC50 (HT-29)?
A: The IC50 was 1.5 µM.

Q: Which IC50 (A549) does the source give for `CCNCCCNCC1CCC1CNCCCNCC` (stereo not drawn) [SL-11044] here?
A: The IC50 was 0.3 µM.
